Where only a bound is given, the exact number is not on record here.

The text below walks through data of ChEMBL document CHEMBL5512611, “Discovery of matrix metalloproteinase inhibitors as anti-skin photoaging agents” (Eur J Med Chem, 2024).

One series addresses Stromelysin-2 (Homo sapiens, UniProt P09238). The series is described as follows: Inhibition of MMP-10 (unknown origin) using 5-FAM-Pro-Leu-OH as substrate by fluorimetric assay.
The target of series [1] is T1, 72 kDa type IV collagenase (Homo sapiens, UniProt P08253). The series is described as follows: Inhibition of human MMP-2 using 7-methoxycoumarin-4-yl)acetyl-Pro-Leu-Gly-Leu-(N3-(2,4-dinitrophenyl)-L-2,3-diaminopropionyl)-Ala-Arg-NH2 as substrate preincubated for 5 mins followed by enzyme addition and measured after 15 mins by fluorescence based analysis.
T1 sequence (P08253 whole entry): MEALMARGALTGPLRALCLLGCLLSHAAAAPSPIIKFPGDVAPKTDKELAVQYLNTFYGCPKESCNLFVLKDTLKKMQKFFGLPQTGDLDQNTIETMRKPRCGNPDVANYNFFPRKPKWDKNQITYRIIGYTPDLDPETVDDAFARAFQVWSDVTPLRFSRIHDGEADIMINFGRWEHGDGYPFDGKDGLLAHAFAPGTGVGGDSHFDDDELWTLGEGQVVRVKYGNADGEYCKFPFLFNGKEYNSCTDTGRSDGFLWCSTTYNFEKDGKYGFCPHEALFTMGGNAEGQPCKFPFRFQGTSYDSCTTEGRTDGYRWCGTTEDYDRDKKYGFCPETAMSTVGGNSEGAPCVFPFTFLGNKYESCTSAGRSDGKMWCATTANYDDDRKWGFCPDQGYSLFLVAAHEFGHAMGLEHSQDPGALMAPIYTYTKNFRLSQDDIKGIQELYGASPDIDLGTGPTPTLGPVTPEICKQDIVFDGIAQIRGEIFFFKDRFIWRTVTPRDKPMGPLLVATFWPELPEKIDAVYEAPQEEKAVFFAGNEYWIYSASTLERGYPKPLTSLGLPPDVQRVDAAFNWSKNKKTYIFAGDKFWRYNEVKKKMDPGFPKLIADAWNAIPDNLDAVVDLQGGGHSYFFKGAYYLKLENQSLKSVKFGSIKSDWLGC
The target in series [2] is Matrix metalloproteinase-9 (Homo sapiens, UniProt P14780). The experiment in a line: Inhibition of human MMP-9 using 7-methoxycoumarin-4-yl)acetyl-Pro-Leu-Gly-Leu-(N3-(2,4-dinitrophenyl)-L-2,3-diaminopropionyl)-Ala-Arg-NH2 as substrate preincubated for 5 mins followed by enzyme addition and measured after 15 mins by fluorescence based analysis.
Chain of Matrix metalloproteinase-9 (P14780 whole entry): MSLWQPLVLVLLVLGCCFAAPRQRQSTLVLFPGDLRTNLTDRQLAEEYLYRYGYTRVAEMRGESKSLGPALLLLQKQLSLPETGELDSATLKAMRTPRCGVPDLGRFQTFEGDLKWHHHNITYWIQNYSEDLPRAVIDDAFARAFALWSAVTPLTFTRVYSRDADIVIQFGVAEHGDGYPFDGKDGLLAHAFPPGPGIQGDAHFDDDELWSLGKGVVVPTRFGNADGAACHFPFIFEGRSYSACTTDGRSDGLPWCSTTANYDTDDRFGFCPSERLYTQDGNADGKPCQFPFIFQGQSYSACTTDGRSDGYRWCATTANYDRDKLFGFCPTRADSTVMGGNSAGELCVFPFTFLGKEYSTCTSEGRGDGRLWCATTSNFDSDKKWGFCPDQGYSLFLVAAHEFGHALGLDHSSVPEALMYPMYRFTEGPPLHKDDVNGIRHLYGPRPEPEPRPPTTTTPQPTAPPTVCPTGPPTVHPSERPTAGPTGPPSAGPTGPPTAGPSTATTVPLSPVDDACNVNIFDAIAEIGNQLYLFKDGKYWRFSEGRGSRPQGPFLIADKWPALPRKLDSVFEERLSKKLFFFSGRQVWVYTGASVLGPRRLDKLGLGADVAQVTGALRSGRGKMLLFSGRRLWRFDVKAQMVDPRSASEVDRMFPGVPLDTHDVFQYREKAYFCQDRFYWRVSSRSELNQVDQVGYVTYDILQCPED
Series [3] concerns the target Macrophage metalloelastase (Homo sapiens, UniProt P39900). The experiment in a line: Inhibition of human MMP-12 using 7-methoxycoumarin-4-yl)acetyl-Pro-Leu-Gly-Leu-(N3-(2,4-dinitrophenyl)-L-2,3-diaminopropionyl)-Ala-Arg-NH2 as substrate preincubated for 5 mins followed by enzyme addition and measured after 15 mins by fluorescence based analysis.
A further series has as its target T2, Interstitial collagenase (Homo sapiens, UniProt P03956).
T2 sequence (P03956 whole entry): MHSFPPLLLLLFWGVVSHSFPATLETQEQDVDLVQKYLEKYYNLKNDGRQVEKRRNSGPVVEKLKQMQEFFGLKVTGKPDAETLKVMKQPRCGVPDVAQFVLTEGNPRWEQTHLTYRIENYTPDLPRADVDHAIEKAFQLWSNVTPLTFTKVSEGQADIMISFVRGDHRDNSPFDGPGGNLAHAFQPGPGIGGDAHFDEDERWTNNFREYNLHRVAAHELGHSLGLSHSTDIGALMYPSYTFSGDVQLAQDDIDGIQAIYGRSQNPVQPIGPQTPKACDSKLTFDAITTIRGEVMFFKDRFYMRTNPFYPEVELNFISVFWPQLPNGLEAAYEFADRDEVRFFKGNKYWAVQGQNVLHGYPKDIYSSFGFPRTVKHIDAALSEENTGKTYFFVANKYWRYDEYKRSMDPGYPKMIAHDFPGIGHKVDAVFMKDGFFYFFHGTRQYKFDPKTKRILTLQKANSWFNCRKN
The experiment in a line: Inhibition of MMP-1 (unknown origin).

Series [4] addresses T1, 72 kDa type IV collagenase. The experiment in a line: Inhibition of recombinant MMP-2 (unknown origin).
A short description of series [5]: Inhibition of UV light -induced MMP-1 expression in HDF-N cells at 1 ppm by ELISA relative to control. The class given is functional. The conditions noted are these: Homo sapiens.
The nature of series [6]: Inhibition of UV light-induced MMP-1 expression in HDF-N cells at 5 ppm by ELISA relative to control. The series is classed as functional. The conditions noted are these: Homo sapiens. (In general: In an ELISA, binding on a coated surface is turned into a signal by an enzyme label.)
Series [7] in a line: Inhibition of UV light-induced MMP-1 expression in HDF-N cells at 10 ppm by ELISA relative to control. The class given is functional. The conditions noted are these: Homo sapiens.
Series [8] is described as follows: Cytotoxicity against human CCD-986Sk cells assessed as cell viability by MTT assay relative to control. The class given is toxicity, cell-based. The conditions noted are these: read-out: Activity. (Tetrazolium dyes change colour on reduction, which living cells bring about.)
Series [9] in a line: Inhibition of MMP-1 mRNA expression in UVB-irradiated human Hs68 cells at 10 uM relative to control. The class given is functional. The conditions noted are these: Hs68, light or radiation study.
The nature of series [10]: Inhibition of MMP-2 mRNA expression in UVB-irradiated human Hs68 cells at 10 uM relative to control. The series is classed as functional. The conditions noted are these: Hs68, light or radiation study.
The nature of series [11]: Inhibition of UVB-induced MMP-9 expression in SKH-1 hairless mouse skin at 1 nM administered topically for 1 hr followed by UVB irradiation for 15 weeks by densitometry based gelatin zymography analysis relative to control. The conditions noted are these: SKH-1, Skin of body, light or radiation study, topical, time 2521 hrs. The series is classed as functional.
Series [12] can be described thus: Inhibition of UVB-induced MMP-9 expression in SKH-1 hairless mouse skin at 5 nM administered topically for 1 hr followed by UVB irradiation for 15 weeks by densitometry based gelatin zymography analysis relative to control. The conditions noted are these: SKH-1, Skin of body, light or radiation study, topical, time 2521 hrs. The series is classed as functional.

A short description of series [13]: Downregulation of UVB irradiation-induced MMP-1 expression in HDF cells at 20 uM measured after 24 hrs by Western blot analysis relative to control. The class given is functional, Homo sapiens, NHDF. A general note: In western blotting, separated proteins are transferred to a membrane and probed.
Series [14] can be described thus: Downregulation of UVB irradiation-induced MMP-3 expression in HDF cells at 20 uM measured after 24 hrs by Western blot analysis relative to control. The series is classed as functional, Homo sapiens, NHDF.

Chain of Stromelysin-2 (P09238 whole entry): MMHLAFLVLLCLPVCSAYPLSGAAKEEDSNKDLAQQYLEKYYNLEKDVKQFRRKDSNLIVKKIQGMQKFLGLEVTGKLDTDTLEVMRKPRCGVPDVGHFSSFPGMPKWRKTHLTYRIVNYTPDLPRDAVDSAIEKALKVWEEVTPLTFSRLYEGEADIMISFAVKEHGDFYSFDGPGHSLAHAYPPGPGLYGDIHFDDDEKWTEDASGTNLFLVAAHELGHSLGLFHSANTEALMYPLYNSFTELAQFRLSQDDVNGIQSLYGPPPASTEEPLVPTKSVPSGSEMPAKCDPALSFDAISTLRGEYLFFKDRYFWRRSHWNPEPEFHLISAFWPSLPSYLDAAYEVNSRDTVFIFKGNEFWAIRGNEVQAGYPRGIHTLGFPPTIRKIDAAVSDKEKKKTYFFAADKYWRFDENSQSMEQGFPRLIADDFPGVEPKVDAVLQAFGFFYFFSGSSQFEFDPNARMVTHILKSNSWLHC
Chain of Macrophage metalloelastase (P39900 whole entry): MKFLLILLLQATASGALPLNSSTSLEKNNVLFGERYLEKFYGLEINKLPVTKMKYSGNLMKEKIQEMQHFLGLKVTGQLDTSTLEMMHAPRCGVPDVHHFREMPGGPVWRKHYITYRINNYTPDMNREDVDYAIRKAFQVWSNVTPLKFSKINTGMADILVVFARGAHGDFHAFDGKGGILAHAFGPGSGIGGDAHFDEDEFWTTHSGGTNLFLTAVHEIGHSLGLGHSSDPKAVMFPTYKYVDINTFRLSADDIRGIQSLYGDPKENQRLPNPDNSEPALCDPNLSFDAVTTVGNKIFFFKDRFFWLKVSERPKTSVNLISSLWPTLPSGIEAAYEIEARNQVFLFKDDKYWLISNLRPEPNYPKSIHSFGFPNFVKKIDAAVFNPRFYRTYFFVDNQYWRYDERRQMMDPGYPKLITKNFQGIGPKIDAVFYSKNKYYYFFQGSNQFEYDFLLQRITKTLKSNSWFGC

A word on the IC50: it is the point on the concentration scale where inhibition reaches its midpoint. As for `COc1ccc(/C=N/Nc2nc(C)cc(=O)[nH]2)cc1`, inhibition against Stromelysin-2 was half-maximal at 0.053 µM (IC50).

On to `C[C@H](C[C@H](COC(=O)CCC(=O)O)NC(=O)c1ccc(Oc2ccccc2)cc1)C(=O)NO`, for which the IC50 amounted to 0.0011 µM in [1], 0.0028 µM in series [2] and 0.0026 µM in series [3].

Consider `CC(=O)N1c2nc(=O)cc(C)n2C(c2ccc(Br)cc2)N1C(C)=O` (configuration not stated), for which half-maximal inhibition against Stromelysin-2 (IC50) was put at 1.63 µM.

On Interstitial collagenase, `O=C(O[C@@H]1Cc2c(O)cc(O)cc2O[C@@H]1c1cc(O)c(O)c(O)c1)c1cc(O)c(O)c(O)c1` [EPIGALOCATECHIN GALLATE] registered an IC50 of 7.9 µM.

Consider `COc1ccc(S(=O)(=O)N(CC(=O)NO)CC(C)C)cc1`, for which the IC50 in series [4] came out at 0.07 µM.

Turning to `C[C@H](C[C@H](CO)NC(=O)c1ccc(Oc2ccccc2)cc1)C(=O)NO`, the IC50 in series [1] was 0.00065 µM; in series [2], 0.0008 µM; in series [3] it was 0.0035 µM.

By inhibition is commonly meant the change of the read-out against control, counted positive when it falls. The low end stands for little suppression, the high end for strong suppression. On to `O=C1c2cc(O)cc(O)c2CN1c1ccc(O)cc1`, for which the inhibition at 1 µg/mL in [5] worked out at 33.9%. The same molecule had an inhibition at 5 µg/mL in [6] of 27.6%. This molecule gave an inhibition at 10 µg/mL in series [7] of 27.5%.

Regarding `COc1cc(/C=C/C(=O)O)ccc1O` [FERULATE], in series [8], the viability is more than 80%.

On to `CC(=O)N1C2NC(C)=CC(=O)N2C(c2ccc(Br)cc2)N1C(C)=O` (configuration not stated), for which, at Stromelysin-2, the IC50 was found to be 0.024 µM.

On Interstitial collagenase, `O=C1OC[C@H]2OC(O)[C@@H]3OC(=O)c4cc(O)c(O)c(O)c4-c4c(cc(O)c(O)c4O)C(=O)O[C@@H]3[C@@H]2OC(=O)c2cc(O)c(O)c(O)c2-c2c1cc(O)c(O)c2O` (some centres not stated) came in with an IC50 of 9.75 µM.

In the case of `COc1cc2ccnc3c2c(c1OC)NC=C3` [AAPTAMINE], the inhibition at 10 µM was 53.6% in series [9] and 87.4% in [10].

What is called inhibition in vivo is the share of the control response that was lost under treatment. Read a low inhibition in vivo as a response near the control. `O=c1c(O)c(-c2cc(O)c(O)c(O)c2)oc2cc(O)cc(O)c12` [MYRICETIN] came in with an inhibition in vivo at 0.001 µM in [11] of 55%. In series [12], this molecule returned an inhibition in vivo at 0.005 µM of 80%.

`Oc1ccc2c(c1)OC[C@]1(O)Cc3cc(O)c(O)cc3[C@H]21` [BRAZILIN]: the Activity in series [13] and in [14] was 50% in each case.
